Test results: patent US12187721B2, “Protein tyrosine phosphatase inhibitors” (Array BioPharma Inc., priority 2018, dated 2025)
Read-outs that look alike come from different tables or passages of the source.

Molecular target: T1, full-length SHP2 (His6-tagged SHP2(2-527)) (Homo sapiens, UniProt Q06124)
T1 construct: His6-tagged SHP2(2-527); His6; made in house; host or cells: E. coli
Assay: SHP2 Enzymatic Assay (fluorescence intensity kinetic assay, DiFMUP hydrolysis)
Format: biochemical
Method: A fluorescence intensity kinetic assay was configured for full-length SHP2 that monitors the amount of 6,8-difluoro-7-hydroxy-4-methylcoumarin (“DiFMU”) formed upon hydrolysis of 6,8-difluoro-4-methylumbelliferyl phosphate (“DiFMUP”) by SHP2. Assay mixtures consisted of 25 mM K^+HEPES, pH 7.4, 0.01% Triton X-100, 1 mM DTT, 50 mM KCl, 100 μg/mL bovine γ-globulin, 50 μM DiFMUP, 1 μM SHP2 activating peptide (LN(pY)IDLDLV(dPEG8)LST(pY)ASINFQK-amide), 1 nM full-length SHP2 (His6-tagged SHP2(2-527), recombinantly expressed in E. coli and purified in-house) and 2% dimethylsulfoxide (“DMSO”) (from compound). […] The assay was run in 384-well, polystyrene, low-volume, non-treated, black microtiter plates (Costar 4511) in a final volume of 20 μL. Low control wells lacked enzyme. The assays were initiated by the addition of a mixture of SHP2 and the activating peptide, and following a 15 second mix on an orbital shaker, were read in kinetic mode for 15 minutes (30 seconds/cycle) at ambient temperature on a PerkinElmer EnVision microplate reader (λEx=355 nm, λEm=460 nm). Initial velocities (slopes of the tangents at t=0) were estimated from exponential fits to the slightly nonlinear progress curves and then were converted to percent of control (“POC”) using the following equation:
[formula] • Where: Xmax Average Uninhibited Controls • Xmin Average Background A 4-parameter logistic model was the fit to the POC data for each compound. From that fit, the IC50 was estimated and is defined as the concentration of compound at which the curve crosses 50 POC.
The reported IC50 in Table 1 may be from a single assay or the mean of multiple assays.

[1] = full-length SHP2 with 1 μM activating peptide, 50 μM DiFMUP, single assay or mean of multiple assays, read-out: Biological Example 1 IC50

T1 sequence (Q06124 2-527): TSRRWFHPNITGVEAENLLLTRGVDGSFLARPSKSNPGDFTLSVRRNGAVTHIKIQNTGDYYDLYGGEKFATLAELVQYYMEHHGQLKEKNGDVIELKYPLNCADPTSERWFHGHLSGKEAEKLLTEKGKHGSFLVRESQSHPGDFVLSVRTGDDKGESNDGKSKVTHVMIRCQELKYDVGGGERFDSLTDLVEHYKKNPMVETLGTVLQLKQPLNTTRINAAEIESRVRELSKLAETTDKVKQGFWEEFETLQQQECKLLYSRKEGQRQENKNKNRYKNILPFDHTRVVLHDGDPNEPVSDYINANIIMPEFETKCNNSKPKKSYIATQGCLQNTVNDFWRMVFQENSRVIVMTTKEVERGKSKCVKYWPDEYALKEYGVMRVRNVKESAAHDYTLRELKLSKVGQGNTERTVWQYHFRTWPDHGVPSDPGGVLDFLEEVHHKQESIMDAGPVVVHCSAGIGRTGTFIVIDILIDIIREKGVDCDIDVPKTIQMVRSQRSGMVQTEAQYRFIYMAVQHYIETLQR

Row | SMILES | IC50 [µM] | IC50 [1] [µM]
1 | COc1cccc(Sc2ccc3nc(N4CCC(C)(N)CC4)cnc3n2)c1Cl [Example 14, 1-(6-((2-chloro-3-methoxyphenyl)thio)pyrido[2,3-b]pyrazin-2-yl)-4-methylpiperidin-4-amine] | 0.1 | –
2 | Nc1nccc(Sc2ccc3nc(N4CCC5(CC4)Cc4c(Cl)cccc4[C@H]5N)cnc3n2)c1Cl [Example 159, (S)-1′-(6-((2-amino-3-chloropyridin-4-yl)thio)pyrido[2,3-b]pyrazin-2-yl)-4-chloro-1,3-dihydrospiro[indene-2,4′-piperidin]-1-amine] | 0.05 | –
3 | COCCNc1nccc(Sc2ccc3nc(N4CCC(C)(N)CC4)cnc3n2)c1Cl [Example 194, 4-((2-(4-amino-4-methylpiperidin-1-yl)pyrido[2,3-b]pyrazin-6-yl)thio)-3-chloro-N-(2-methoxyethyl)pyridin-2-amine] | 0.238 | –
4 | Nc1nccc(Sc2ccc3nc(N4C[C@H]5CC[C@@H](C4)[C@@H]5N)cnc3n2)c1Cl [Example 199, (1R,5S,8s)-3-(6-((2-amino-3-chloropyridin-4-yl)thio)pyrido[2,3-b]pyrazin-2-yl)-3-azabicyclo[3.2.1]octan-8-amine] | 0.344 | –
5 | CNc1nccc(Sc2ccc3nc(N4CCCC(C)(N)CC4)cnc3n2)c1Cl (centres unmarked) [Example 146, 1-(6-((3-chloro-2-(methylamino)pyridin-4-yl)thio)pyrido[2,3-b]pyrazin-2-yl)-4-methylazepan-4-amine] | 0.089 | –
6 | Nc1nccc(Sc2ccc3nc(N4CCC5(CCCC5N)C4)cnc3n2)c1Cl (centres unmarked) [Example 83, 2-(6-((2-amino-3-chloropyridin-4-yl)thio)pyrido[2,3-b]pyrazin-2-yl)-2-azaspiro[4.4]nonan-6-amine] | 0.173 | –
7 | NCC1(CO)CCN(c2cnc3nc(Sc4ccnc(N)c4Cl)ccc3n2)CC1 [Example 86, (1-(6-((2-amino-3-chloropyridin-4-yl)thio)pyrido[2,3-b]pyrazin-2-yl)-4-(aminomethyl)piperidin-4-yl)methanol] | 0.053 | –
8 | Nc1nccc(Sc2ccc3nc(N4CCC5(CC4)Cc4ncc(F)cc4[C@@H]5N)cnc3n2)c1Cl (single isomer, unassigned) [Example 118] | 0.045 | –
9 | C[C@@H]1OCC2(CCN(c3cnc4nc(Sc5ncnc(N)c5Cl)ccc4n3)CC2)[C@@H]1N [Example 217, (3S,4S)-8-(6-((6-amino-5-chloropyrimidin-4-yl)thio)pyrido[2,3-b]pyrazin-2-yl)-3-methyl-2-oxa-8-azaspiro[4.5]decan-4-amine] | 0.845 | –
10 | CC(C)(N)C1CCN(c2cnc3nc(Sc4cccc(Cl)c4Cl)ccc3n2)CC1 [Example 61, 2-(1-(6-((2,3-dichlorophenyl)thio)pyrido[2,3-b]pyrazin-2-yl)piperidin-4-yl)propan-2-amine] | 1.57 | –
11 | CC1(N)CCN(c2ccc3nc(Sc4cccc(Cl)c4Cl)cnc3n2)CC1 [Example 7, 1-(2-((2,3-dichlorophenyl)thio)pyrido[2,3-b]pyrazin-6-yl)-4-methylpiperidin-4-amine] | 9.5 | –
12 | Nc1nccc(Sc2ccc3nc(N4C5CCC4CNC5)cnc3n2)c1Cl [Example 204, 4-((2-(3,8-diazabicyclo[3.2.1]octan-8-yl)pyrido[2,3-b]pyrazin-6-yl)thio)-3-chloropyridin-2-amine] | 0.047 | –
13 | CC1(N)CCN(c2cnc3nc(-c4cccc(Cl)c4C(F)(F)F)ccc3n2)CC1 [Example 11, 1-(6-(3-chloro-2-(trifluoromethyl)phenyl)pyrido[2,3-b]pyrazin-2-yl)-4-methylpiperidin-4-amine] | 2.3 | –
14 | C[C@@H]1OCC2(CCN(c3cnc4nc(Sc5c(Cl)cnc6[nH]ccc56)ccc4n3)CC2)[C@@H]1N [Example 192, (3S,4S)-8-(6-((5-chloro-1H-pyrrolo[2,3-b]pyridin-4-yl)thio)pyrido[2,3-b]pyrazin-2-yl)-3-methyl-2-oxa-8-azaspiro[4.5]decan-4-amine] | 0.045 | –
15 | Nc1nccc(Sc2ccc3nc(N4C[C@@H]5C[C@H]4CN5)cnc3n2)c1Cl [Example 203, 4-((2-((1S,4S)-2,5-diazabicyclo[2.2.1]heptan-2-yl)pyrido[2,3-b]pyrazin-6-yl)thio)-3-chloropyridin-2-amine] | 0.142 | –
16 | Cc1nccc(Sc2ccc3nc(N4CCC(C)(N)CC4)cnc3n2)c1Cl [Example 94, 1-(6-((3-chloro-2-methylpyridin-4-yl)thio)pyrido[2,3-b]pyrazin-2-yl)-4-methylpiperidin-4-amine] | 0.049 | –

Row | SMILES | IC50 [µM] | IC50 [1] [µM]
17 | CC1(N)CCN(c2cnc3nc(Nc4cccc(Cl)c4Cl)ccc3n2)CC1 [Example 17, 2-(4-amino-4-methylpiperidin-1-yl)-N-(2,3-dichlorophenyl)pyrido[2,3-b]pyrazin-6-amine] | 0.87 | –
18 | C[C@@H]1OCC2(CCN(c3cnc4nc(Sc5ccnc(N6CC[C@@H](O)C6)c5Cl)ccc4n3)CC2)[C@@H]1N [Example 107, (R)-1-(4-((2-((3S,4S)-4-amino-3-methyl-2-oxa-8-azaspiro[4.5]decan-8-yl)pyrido[2,3-b]pyrazin-6-yl)thio)-3-chloropyridin-2-yl)pyrrolidin-3-ol] | 0.12 | –
19 | C[C@@H]1OCC2(CCN(c3cnc4nc(Sc5ccncc5Cl)ccc4n3)CC2)[C@@H]1N [Example 187, (3S,4S)-8-(6-((3-chloropyridin-4-yl)thio)pyrido[2,3-b]pyrazin-2-yl)-3-methyl-2-oxa-8-azaspiro[4.5]decan-4-amine] | 0.261 | –
20 | Nc1nccc(Sc2ccc3nc(N4[C@H]5CC[C@H]4CC(N)C5)cnc3n2)c1Cl (stereo partly drawn) [Example 52, (1R,3s,5S)-8-(6-((2-amino-3-chloropyridin-4-yl)thio)pyrido[2,3-b]pyrazin-2-yl)-8-azabicyclo[3.2.1]octan-3-amine] | – | 0.07
21 | Cc1ccc2c(n1)CC1(CCN(c3cnc4nc(Sc5ccnc(N)c5Cl)ccc4n3)CC1)[C@H]2N [Example 113, (R)-1′-(6-((2-amino-3-chloropyridin-4-yl)thio)pyrido[2,3-b]pyrazin-2-yl)-2-methyl-5,7-dihydrospiro[cyclopenta[b]pyridine-6,4′-piperidin]-5-amine] | 0.053 | –
22 | CC1(CN)CCN(c2cnc3nc(Sc4ccnc(N)c4Cl)ccc3n2)CC1 [Example 12, 4-((2-(4-(aminomethyl)-4-methylpiperidin-1-yl)pyrido[2,3-b]pyrazin-6-yl)thio)-3-chloropyridin-2-amine] | – | 0.061
23 | CC1CCN(c2cnc3nc(Sc4ccnc(N)c4Cl)ccc3n2)CC1 [Example 143, 3-chloro-4-((2-(4-methylpiperidin-1-yl)pyrido[2,3-b]pyrazin-6-yl)thio)pyridin-2-amine] | 1.76 | –
24 | C[C@@H]1OCC2(CCN(c3cnc4nc(Sc5ccnc6[nH]cnc56)ccc4n3)CC2)[C@@H]1N [Example 131, (3S,4S)-8-(6-((3H-imidazo[4,5-b]pyridin-7-yl)thio)pyrido[2,3-b]pyrazin-2-yl)-3-methyl-2-oxa-8-azaspiro[4.5]decan-4-amine] | 0.419 | –
25 | CC1(N)CCN(c2cnc3nc(-c4cccc(Cl)c4Cl)ccc3n2)CC1 [Example 2, 1-(6-(2,3-dichlorophenyl)pyrido[2,3-b]pyrazin-2-yl)-4-methylpiperidin-4-amine] | – | 0.093
26 | Nc1nccc(Sc2ccc3nc(N4CCC(N)(Cc5ccccc5)CC4)cnc3n2)c1Cl [Example 181, 4-((2-(4-amino-4-benzylpiperidin-1-yl)pyrido[2,3-b]pyrazin-6-yl)thio)-3-chloropyridin-2-amine] | 0.075 | –
27 | C[C@@]1(N)CCN(c2cnc3nc(-c4cccc(Cl)c4Cl)ccc3n2)C1 [Example 32, (R)-1-(6-(2,3-dichlorophenyl)pyrido[2,3-b]pyrazin-2-yl)-3-methylpyrrolidin-3-amine] | 0.42 | –
28 | Nc1nccc(Sc2ccc3nc(N4CCC5(CC4)Cc4cccnc4C5N)cnc3n2)c1Cl (centres unmarked) [Example 158, 1′-(6-((2-amino-3-chloropyridin-4-yl)thio)pyrido[2,3-b]pyrazin-2-yl)-5,7-dihydrospiro[cyclopenta[b]pyridine-6,4′-piperidin]-7-amine] | 0.106 | –
29 | CC1(N)CCN(c2cnc3nc(-c4cccc5ccncc45)ccc3n2)CC1 [Example 50, 1-(6-(isoquinolin-8-yl)pyrido[2,3-b]pyrazin-2-yl)-4-methylpiperidin-4-amine] | 9 | –
30 | Nc1nccc(Sc2ccc3nc(N4CCC(N)(Cc5ccccn5)CC4)cnc3n2)c1Cl [Example 180, 4-((2-(4-amino-4-(pyridin-2-ylmethyl)piperidin-1-yl)pyrido[2,3-b]pyrazin-6-yl)thio)-3-chloropyridin-2-amine] | 0.274 | –
31 | COc1nccc(-c2ccc3nc(N4CCC5(CC4)CO[C@@H](C)[C@H]5N)cnc3n2)c1Cl [Example 21, (3S,4S)-8-(6-(3-chloro-2-methoxypyridin-4-yl)pyrido[2,3-b]pyrazin-2-yl)-3-methyl-2-oxa-8-azaspiro[4.5]decan-4-amine] | 5.7 | –
32 | CNc1nccc(Sc2ccc3nc(N4CCC(C)(N)CC4)cnc3n2)c1Cl [Example 161, 4-((2-(4-amino-4-methylpiperidin-1-yl)pyrido[2,3-b]pyrazin-6-yl)thio)-3-chloro-N-methylpyridin-2-amine] | 0.045 | –
